Results from patent US7935680B2, “Methods for modulating the axonal growth of central nervous system neurons” (Children's Medical Center Corporation, priority 1997, dated 2011).
“Also recorded” adds a separate entry of the source.

B1: ADA: exogenous adenosine deaminase enzyme (protein, UniProt P00813 2-363, looked up)
Adenosine deaminase: AQTPAFDKPKVELHVHLDGSIKPETILYYGRRRGIALPANTAEGLLNVIGMDKPLTLPDFLAKFDYYMPAIAGCREAIKRIAYEFVEMKAKEGVVYVEVRYSPHLLANSKVEPIPWNQAEGDLTPDEVVALVGQGLQEGERDFGVKARSILCCMRHQPNWSPKVVELCKKYQQQTVVAIDLAGDETIPGSSLLPGHVQAYQEAVKSGIHRTVHAGEVGSAEVVKEAVDILKTERLGHGYHTLEDQALYNRLRQENMHFEICPWSSYLTGAWKPDTEHAVIRLKNDQANYSLNTDDPLIFKSTLDTDYQMTKRDMGFTEEEFKRLNINAAKSSFLPEDEKRELLDLLYKAYGMPPSASAGQNL

Key:
Assay type in all cases: cell-based
GAP-43 = GAP-43 immunohistochemistry in goldfish retinal ganglion cells; details: immunostaining
Procedure: One hallmark of optic nerve regeneration in vivo is the enhanced expression of the membrane phosphoprotein GAP-43. To investigate whether this upregulation is induced by purines, immunohistochemistry was carried out using a polyclonal rabbit antiserum against recombinant […] GAP-43. Recombinant zebrafish GAP-43 was made by transforming E. coli with a cDNA isolated by Dr. Eva Reinhard, University of Basel, Switzerland (see Reinhard et al., Development, 120: 1757-1775, 1994, the contents of which are incorporated herein by reference) subcloned into the prokaryotic expression vector pTrcHisB (Invitrogen). The protein produced was purified by Ni^2+-NTA-affinity chromatography and used to immunize rabbits. […] Inosine produced a 5.5-fold increase in the number of intensely stained cells over L-15, whereas AF-1 produced a 8-fold increase. In all 3 cases, the intensity of GAP-43 immunostaining correlated strongly with axonal length.

[1] = test system: goldfish retinal ganglion cells; test: Axonal outgrowth from dissociated goldfish retinal ganglion cell cultures; details: for EC50: goldfish RGCs, 6 days, estimated from dose-response curves; for outgrowth at higher concentrations: concentrations above those giving the maximal response; for axonal outgrowth activity: tested at concentrations between 1-100 μM
Procedure: Axogenesis factor-1 was obtained essentially as described in Schwalb et al., 1995, and Schwalb et al., Neuroscience, 72: 901-910, 1996, the contents of which are incorporated herein by reference). Optic nerves were dissected, cut into fragments 1 mm in length, and incubated in a ratio of 6 nerves in 3 ml of either L-15 media (Gibco BRL) or phosphate-buffered saline (Gibco BRL). After 3-4 hours, nerve fragments were removed by filtering through a 0.22 μm pore low protein-binding filter (Gelman). A low molecular weight fraction of the conditioned media was prepared by ultrafiltration, first with a molecular weight cut-off of 3 kDa (Amicon Centriprep-3), then with a cut-off of 1 kDa (Filtron). The filtrate was used as a positive control at 20-30% final concentration. […] Goldfish (Comet Variety, Mt. Parnell Fisheries, Mt. Parnell Pa.), 6-10 cm in length, were dark-adapted and their retinas dissected. Retinas were incubated with papain (20 μg/ml), activated with cysteine (2.8 mM) for 30 minutes at room temperature, then dissociated by gentle trituration. […] Neuroscience 15: 5514-5625, 1995, the contents of which are incorporated herein by reference). […] Cells were maintained at 21° C. in serum free, defined media containing insulin, selenium, transferrin, bovine serum albumin, catalase, superoxide dismutase, hormones, and vitamins in Eagle's L-15 media as described in Schwalb et al., 1995, the contents of which are incorporated herein by reference). Dissociated cultures of purified rat retinal ganglion cells were prepared by immunopanning as described in Barres et al., Neuron, 1: 791-803, 1988, the contents of which are incorporated herein by reference). In brief, retinas from postnatal day 8 Sparague-Dawley rats were dissociated using papain activated with cysteine. Macrophages were removed by incubation with an anti-rat macrophage antibody (Accurate) followed by immunopanning with an anti-rabbit 1gG antibody. Ganglion cells were isolated by immunopanning with an anti-Thy-1 antibody, then dislodged with trypsin for use in low-density cultures. Rat retinal ganglion cells were maintained at 37° C. in a CO2 incubator using the same medium described above except for the presence of 30 mM bicarbonate. In a typical experiment, samples were plated in quadruplicate in randomized positions of a 24-well plate and the code was concealed to ensure that growth was evaluated in a blinded fashion. Each experiment contained 4 wells of a negative control (media plus supplements only) and 4 wells of a positive control (a standardized AF-1 sample of known activity). […] After the completion of counting, the code was broken, the data tabulated, and means and standard errors were calculated for the 4 replicate wells of each sample using Cricket Graph (CA Associates, […].). […] Group comparisons were based upon pairwise, 2-tailed Student's t-tests. Several independent experiments were performed for most samples, as noted in the figure legends. […] Cell survival is reported as the number of viable RGCs per high-powered field.

[2] = test system: goldfish retinal ganglion cells; test: Cell survival in goldfish retinal ganglion cell cultures (viable RGCs per field)
Procedure: Goldfish (Comet Variety, Mt. Parnell Fisheries, Mt. Parnell Pa.), 6-10 cm in length, were dark-adapted and their retinas dissected. Retinas were incubated with papain (20 μg/ml), activated with cysteine (2.8 mM) for 30 minutes at room temperature, then dissociated by gentle trituration. […] Low density cultures were achieved by plating c. 5×10^3 cells/well into poly L-lysine coated, 24-well culture dishes (Costar, Cambridge, Mass.). […] In brief, retinas from postnatal day 8 Sparague-Dawley rats were dissociated using papain activated with cysteine. Macrophages were removed by incubation with an anti-rat macrophage antibody (Accurate) followed by immunopanning with an anti-rabbit 1gG antibody. Ganglion cells were isolated by immunopanning with an anti-Thy-1 antibody, then dislodged with trypsin for use in low-density cultures. Rat retinal ganglion cells were maintained at 37° C. in a CO2 incubator using the same medium described above except for the presence of 30 mM bicarbonate.
In a typical experiment, samples were plated in quadruplicate in randomized positions of a 24-well plate and the code was concealed to ensure that growth was evaluated in a blinded fashion. Each experiment contained 4 wells of a negative control (media plus supplements only) and 4 wells of a positive control (a standardized AF-1 sample of known activity). Growth and survival were assessed after 6 days for all ganglion cells in 25 consecutive fields of each well using phase contrast microscopy at 400× magnification (c. 150 ganglion cells counted per well). […] After the completion of counting, the code was broken, the data tabulated, and means and standard errors were calculated for the 4 replicate wells of each sample using Cricket Graph (CA Associates, Islandia, N.Y.). Data were normalized by subtracting the growth in the negative controls (usually 4-5%) and dividing by the net growth in the positive controls. […] Group comparisons were based upon pairwise, 2-tailed Student's t-tests. Several independent experiments were performed for most samples, as noted in the figure legends. In some cases, cell viability was assessed with the dye 5,6-carboxyfluorescein diacetate. Cell survival is reported as the number of viable RGCs per high-powered field.

Molecule | GAP-43 levels relative to L-15 treated controls (GAP-43) | EC50 ([1]; Carassius auratus, 144 h) [µM] | outgrowth at higher concentrations [1] | dependence of outgrowth on cell density ([1]; fixed concentration (100 μM), 3-4-fold range of cell densities) | EC50 [1] [µM] | maximal response relative to the level induced by AF-1 ([1]; normalized to AF-1 positive control, adenosine 50-100 μM, guanosine 100 μM, inosine above 25 or 50 μM) | axonal outgrowth activity [1] | cell survival when ADA is blocked with DCF [2] | outgrowth when adenosine hydrolysis is blocked ([1]; 100 μM adenosine in the presence of 10 μM DCF) | Emax ([1]; Carassius auratus, normalized to AF-1 positive control, adenosine 50-100 μM, guanosine 100 μM, inosine above 25 or 50 μM, read-out: maximal response relative to the level induced by AF-1) [%] | effect on cell survival ([2]; exogenous ADA 0.4 U/ml with 100 μM adenosine) | effect on outgrowth stimulated by 100 μM adenosine ([1]; exogenous ADA 0.4 U/ml)
Nc1nc2c(ncn2[C@@H]2O[C@H](CO)[C@@H](O)[C@H]2O)c(=O)[nH]1 [guanosine] | large increase in GAP-43 levels | 20 to 30 | no obvious decrease in activity | growth is not a function of cell density; also recorded: independent of cell density | 25 | same maximal level of activity as adenosine | stimulated almost as much outgrowth from goldfish retinal ganglion cells as AF-1 |  |  |  |  | 
Nc1ncnc2c1ncn2[C@@H]1O[C@H](CO)[C@@H](O)[C@H]1O [adenosine] |  | 10 to 15 | outgrowth decreased |  |  |  | stimulated almost as much outgrowth from goldfish retinal ganglion cells as AF-1 | causes adenosine to suppress growth (e, top) and survival | suppress growth; also recorded: failed to stimulate growth, but caused it to decline below baseline levels | 60 |  | 
B1 |  |  |  |  |  |  |  |  |  |  | did not diminish axon outgrowth stimulated by 100 μM adenosine or affect cell survival | unaltered; also recorded: did not diminish axon outgrowth
